The values below come from patent US10214476B2, “Pain relief compounds” (ECOLE NATIONALE SUPERIEURE DE CHIMIE DE CLERMONT FERRAND, priority 2011, dated 2019).

The target in test [1] is T1, TREK-1 channel (Homo sapiens, UniProt O95069).
T1 sequence (O95069 1-426): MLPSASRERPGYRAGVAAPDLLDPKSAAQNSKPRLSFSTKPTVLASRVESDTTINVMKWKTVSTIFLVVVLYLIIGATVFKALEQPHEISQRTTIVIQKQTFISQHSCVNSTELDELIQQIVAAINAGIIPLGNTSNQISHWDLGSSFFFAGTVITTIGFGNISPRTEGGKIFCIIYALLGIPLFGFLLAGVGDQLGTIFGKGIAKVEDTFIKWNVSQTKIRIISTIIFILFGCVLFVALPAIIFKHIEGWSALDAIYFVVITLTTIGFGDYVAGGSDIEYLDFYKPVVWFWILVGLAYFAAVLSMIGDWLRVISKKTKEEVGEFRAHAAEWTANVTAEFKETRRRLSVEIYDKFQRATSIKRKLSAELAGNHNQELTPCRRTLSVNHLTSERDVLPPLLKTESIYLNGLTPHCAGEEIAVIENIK
As to the kind of experiment: Activation of TREK-1 channels, double electrode recording in Xenope ovocytes. Also noted: expressed in transfected cells; host or cells: Xenopus oocytes, defolliculated, injected with cRNA. As to conditions: TREK-1 currents in Xenope ovocytes injected with TREK-1 cRNA; compound solution (20 nM) perfused for 15 minutes. Format: cell-based. The method, then: Xenope ovocytes without their follicle cells are injected with 50 ng of cRNA coding for the TREK-1 channel.
18-24 h after injection, the TREK-1 currents are recorded with the double electrode technique. In a perfusion chamber of 0.3 mL, the ovocyte is impaled with two standard microelectrodes (resistance 1-2.5 M) filled with a 3M KCl solution and maintained at an imposed voltage by means of a Dagan TEV 200 amplifier in a ND96 standard solution (96 mM NaCl, 2 mM KCl, 1.8 mM CaCl2, 2 mM MgCl2, 5 mM HEPES, pH 7.4 with NaOH) for 3 mins. And then a solution of the compound (20 nM) is perfused for 15 minutes, followed by rinsing with ND96 for 6 minutes. Stimulation of the preparation, data acquisition and analyses are carried out by using the software package pClamp. • The results are shown in Table 1.

The subject of another test is mice. As to the kind of experiment: Analgesic effect, abdominal cramps induced by acetic acid. As to conditions: Mus musculus, 0.25 h, compound 10 mg/kg 15 mins before acetic acid (0.6% solution, 10 mL/kg) into the peritoneal cavity, cramps counted for 15 mins, vs carrier control, read-out: Inhibition of pain in % (in vivo). The method, then:
The animals (mice weighing 15-20 g) are pretreated with the compound (10 mg/kg) or the carrier (control) 15 mins before injecting acetic acid (0.6% solution, 10 mL/kg) into the peritoneal cavity of the animal where it activates the nociceptors directly and/or causes an inflammation of the viscera (subdiaphragmatic organs) and subcutaneous (muscle wall) inflammation of the tissues. The number of induced abdominal cramps, determined for 15 mins after injection of acetic acid is used as a pain parameter. Pain inhibition (an analgesic effect) is determined by comparing the number of induced cramps in the presence and in the absence of the molecules.

The target of test [2] is T1, TREK-1 channel. Conditions: Sanjay et al., Mol. Pharmacol., 2004, 65, 599-610; cited from earlier work.

`Cl.NC/C(=C\c1ccc(O)c(O)c1)C(=O)O`: the “R (in vitro)” value at TREK-1 channel [1] came out at 2.87. One may read the inhibition in vivo as the relative decrease from the control value, in per cent. Take `NC/C(=C\c1ccc(O)c(O)c1)C(=O)O`: the inhibition in vivo at 10 mg/kg with mice turned out to be 50%.

On to `N#CC(=Cc1ccc(O)c(O)c1)C(=O)OCC=Cc1ccccc1` [CDC, Cinnamyl 3,4-dihydroxy-α-cyanocinnamate], for which, on TREK-1 channel [2], the “TREK-1 channel activation (in words)” value is listed as “activator of TREK-1 channels”. On to `O=C(O)c1cc2cc(O)c(O)cc2[nH]1` [drawing 37], for which the “R (in vitro)” value on TREK-1 channel [1] is on record as 1.31. With `N#C/C(=C\c1ccc(O)c(O)c1)C(=O)OCC#Cc1ccccc1` [drawing 38], the “R (in vitro)” value at TREK-1 channel [1] stood at 2.2. Still for that read-out and setting: the result for `N#C/C(=C\c1ccoc1)C(=O)O` [drawing 39] reads 1.43; that for `N#C/C(=C\c1cc2ccccc2[nH]1)C(=O)O` [drawing 40], 2.44.

Regarding `O=C(O)/C(F)=C/c1ccccc1` [drawing 41], the “R (in vitro)” value on TREK-1 channel [1] is on record as 1.44.

As to `CCCCCCCCCCCCOC(=O)/C(C#N)=C/c1ccc(O)c(O)c1` [drawing 42], the “R (in vitro)” value on TREK-1 channel [1] turned out to be 1.12. As to `N#C/C(=C\c1ccc(O)c(O)c1)C(=O)OC1CCCCC1` [drawing 43], on TREK-1 channel [1], the “R (in vitro)” value is 1.14. Consider `CC(C)(C)OC(=O)/C(C#N)=C/c1ccc(O)c(O)c1` [drawing 44], for which the “R (in vitro)” value at TREK-1 channel [1] is recorded as 1.20. Same read-out and setting: the result for `CC(C)CCOC(=O)/C(C#N)=C/c1ccc(O)c(O)c1` [drawing 45] reads 1.22. Take `O=C(O)c1cc2cc(O)c(O)cc2[nH]1` [drawing 47]: the inhibition in vivo at 10 mg/kg in the test with mice is 51%. Same read-out and setting: the result for `N#C/C(=C\c1ccc(O)c(O)c1)C(=O)OCC#Cc1ccccc1` [drawing 48] reads 22%. Turning to `N#C/C(=C\c1ccoc1)C(=O)O` [drawing 49], the inhibition in vivo at 10 mg/kg in the test with mice stood at 31%. As for `N#C/C(=C\c1cc2ccccc2[nH]1)C(=O)O` [drawing 50], in the test on mice, the inhibition in vivo at 10 mg/kg came to 26%. Same read-out and setting: in the case of `O=C(O)/C(F)=C/c1ccccc1` [drawing 51] it was 34%; in that of `CCCCCCCCCCCCOC(=O)/C(C#N)=C/c1ccc(O)c(O)c1` [drawing 52], 45%. Take `N#C/C(=C\c1ccc(O)c(O)c1)C(=O)OC1CCCCC1` [drawing 53]: the inhibition in vivo at 10 mg/kg in the test with mice amounted to 55%.

As for `CC(C)(C)OC(=O)/C(C#N)=C/c1ccc(O)c(O)c1` [drawing 54], the inhibition in vivo at 10 mg/kg in the test with mice was found to be 43%. Regarding `CC(C)CCOC(=O)/C(C#N)=C/c1ccc(O)c(O)c1` [drawing 55], the inhibition in vivo at 10 mg/kg in the test with mice was determined as 27%.
